Reference: PubChem BioAssay AID732 (Emory University Molecular Libraries Screening Center, 2007)
Where “and” joins values, the source holds several entries; their conditions need not be identical. Identical values can stand only once. Calls of active or inactive are those of the source. No rule for the calls is given here.

These molecules were tested on in vivo angiogenesis, blood vessel count (assay: angiogenesis inhibition in living animals, in vivo study, HTS (AID 732;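 also: zebrafish embryos dosed at one day post fertilization; 0% = reference inhibitor and 100% = plate mean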)). Settings: stronger effect = lower value;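 tested at 30 µM in the well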.

| Compound | vessel count % control |
| --- | --- |
| CC[C@@H]1Cc2cc(O)ccc2C2=C1c1ccc(O)cc1C[C@H]2CC | 99.8% (inactive) |
| CN[C@H](CC(=O)O)C(=O)O | 86.7% (inactive) |
| COc1cc(C(O)CO)ccc1O (stereo not given) | 96.8% (inactive) |
| O=C(c1ccc2c(c1)OCCO2)N1CCCCC1 | 106% (inactive) |
| O=c1[nH]c2cc(C(F)(F)F)ccc2n1-c1cc(C(F)(F)F)ccc1O | 91.2% (inactive) |
| NC(N)=Nc1nc(CSCC/C(N)=N/S(N)(=O)=O)cs1 | 113% (inactive) |
| O=Nc1c(-c2c(O)[nH]c3ccc(Cl)cc23)[nH]c2ccccc12 | 88.2% (inactive) |
| O=c1ccc2ccc(O)c(O)c2o1 | 121% (inactive) |
| [Li+] | 0% (inactive) |
| CCNC(=O)[C@H]1O[C@@H](n2cnc3c(N)nc(NCCc4ccc(CCC(=O)O)cc4)nc32)C(O)[C@H]1O (stereo not given in full) | 93.7% (inactive) |
| CCCN(CCC)[C@@H]1CCc2ccc(O)cc2C1 | 93.2% (inactive) |
| Cc1cc(N)c2ccccc2[n+]1CCCCCCCCCC[n+]1c(C)cc(N)c2ccccc21 | 100% (inactive) |
| Cn1cnc(CCN)c1 | 99.8% (inactive) |
| C=CCN1CCc2c(cc(O)c(O)c2Cl)C(c2ccccc2)C1 (stereo not given) | 121% (inactive) |
| C=C[C@H]1CN2CCC1C[C@H]2[C@H](O)c1ccnc2ccc(OC)cc12 (stereo not given in full) | 98% (inactive) |
| CC1CC2C3CCC4=CC(=O)C=C[C@]4(C)[C@@]3(F)[C@@H](O)C[C@]2(C)[C@@]1(O)C(=O)CO (stereo not given in full) | 129% (inactive) |
| NCCSSCCN | 118% (inactive) |
| O=c1onc2n1-c1cc(Br)ccc1OC2 | 95.9% (inactive) |
| CCN(CC)CCOC(=O)c1cc(Cl)c(N)cc1OC | 114% (inactive) |
| Nc1nc(N)c2nc(CNc3ccc(C(=O)NC(CCC(=O)O)C(=O)O)cc3)cnc2n1 (stereo not given) | 99.6% (inactive) |
| Cc1ccccc1N1CCN(S(=O)(=O)C[C@]23CCC(CC2NC(=O)[C@@H](N)CCS(C)(=O)=O)C3(C)C)CC1 (stereo not given in full) | 107% (inactive) |
| CCCCN1CCC(COC(=O)c2cc(Cl)c(N)c3c2OCCO3)CC1 | 105% (inactive) |
| Nc1ccc2c3c(cccc13)C(=O)NC2=O | 0% (inactive) |
| NCC(CP(=O)(O)O)c1ccc(Cl)cc1 (stereo not given) | 116% (inactive) |

| Compound | vessel count % control |
| --- | --- |
| CC#CCOC(=O)c1c(C)nc2sc3c(c2c1N)CCC(O)C3 (stereo not given) | 116% (inactive) |
| CC(C)Cc1ccc([C@H](C)C(=O)O)cc1 | 66.8% (inactive) |
| NC(N)=NCc1cccc(I)c1 | 98.4% (inactive) |
| O=c1[nH]c2cc(Cl)ccc2c(O)c1-c1ccc(Oc2ccccc2)cc1 | 66.8% (inactive) |
| CC(C)(C)NCC(O)COc1nsnc1N1CCOCC1 (stereo not given) | 101% (inactive) |
| Cc1cc(C)c(/C=C2\C(=O)Nc3ccccc32)[nH]1 | 0% (inactive) |
| CNCCNS(=O)(=O)c1cccc2cnccc12 | 140% (inactive) |
| O=S(=O)(NCCNC/C=C/c1ccc(Br)cc1)c1cccc2cnccc12 | 90.3% (inactive) |
| CC(C)NP(=O)(NC(C)C)OP(=O)(NC(C)C)NC(C)C | 117% (inactive) |
| CNC(=O)OCC[N+](C)(C)C | 96.2% (inactive) |
| N[C@@H](Cn1cc(I)c(=O)[nH]c1=O)C(=O)O | 107% (inactive) |
| C#CCn1c(=O)c2c(ncn2C)n(C)c1=O | 103% (inactive) |
| C[C@]12CCC(=O)C=C1CC[C@@H]1[C@@H]2CC[C@@]2(C)[C@H]1CC[C@]2(O)C(=O)CO | 106% (inactive) |
| CN1CCN(c2nc3cc(C(F)(F)F)ccc3n3cccc23)CC1 | 100% (inactive) |
| CN[C@H](CC(C)C)C(=O)N[C@H]1C(=O)N[C@@H](CC(N)=O)C(=O)N[C@H]2C(=O)N[C@H]3C(=O)N[C@H](C(=O)N[C@H](C(=O)O)c4cc(O)cc(O)c4-c4cc3ccc4O)[C@H](O)c3ccc(c(Cl)c3)Oc3cc2cc(c3O[C@@H]2O[C@H](CO)[C@@H](O)[C@H](O)[C@H]2O[C@H]2C[C@](C)(N)[C@H](O)[C@H](C)O2)Oc2ccc(cc2Cl)[C@H]1O | 103% (inactive) |
| NOCC(=O)O | 114% (inactive) |
| C=CCN1CCc2cccc3c2[C@H]1Cc1ccc(O)c(O)c1-3 | 113% (inactive) |
| CC(=O)[C@H]1CC[C@H]2[C@@H]3CCC4=CC(=O)CC[C@]4(C)[C@H]3CC[C@]12C | 102% (inactive) |
| Cc1scc2c1N(C(=O)CN1CCN(C)CC1)c1ccccc1NC2=O | 93.3% (inactive) |
| O=C(O)/C=C/C(O)c1ccc(Cl)cc1 (stereo not given) | 115% (inactive) |
| Oc1ccc(C2CNCc3sccc32)cc1O (stereo not given) | 94.7% (inactive) |
| CCn1cc(C(=O)O)c(=O)c2ccc(Cc3ccccc3)nc21 | 108% (inactive) |
| CCc1cccc2c3c([nH]c12)C(CC)(CC(=O)O)OCC3 (stereo not given) | 83.6% (inactive) |
| CC(N)C(=O)OC(C)(C)Cc1ccc(Cl)cc1 (stereo not given) | 112% (inactive) |

| Compound | vessel count % control |
| --- | --- |
| c1ccc2cc(CC3=NCCN3)ccc2c1 | 120% (inactive) |
| NN=C(N)N | 92.2% (inactive) and 80.5% (inactive) |
| O=C(O)CC1CCCc2ccccc2C1O (stereo not given) | 137% (inactive) |
| O=c1ccc2c(OCCCCc3ccccc3)c3ccoc3cc2o1 | 76.3% (inactive) |
| CC[C@@H](CO)NC(=O)[C@@H]1C=C2c3cccc4[nH]cc(c34)C[C@H]2N(C)C1 | 121% (inactive) |
| C[N+](C)(C)CCO | 96.9% (inactive) |
| O=C(O)CCC(NC(=O)c1ccccc1C(=O)O)C(=O)O (stereo not given) | 103% (inactive) |
| O=C(Nc1cc(C(=O)Nc2ccc(S(=O)(=O)O)cc2S(=O)(=O)O)cc(C(=O)Nc2ccc(S(=O)(=O)O)cc2S(=O)(=O)O)c1)Nc1cc(C(=O)Nc2ccc(S(=O)(=O)O)cc2S(=O)(=O)O)cc(C(=O)Nc2ccc(S(=O)(=O)O)cc2S(=O)(=O)O)c1 | 118% (inactive) |
| CCCC[C@@]1(C2CCCC2)Cc2cc(OCC(=O)O)c(Cl)c(Cl)c2C1=O | 121% (inactive) |
| CCCCCCCCCCCCCCCCCC(=O)NCC(COP(=O)([O-])OCC[N+](C)(C)C)OCC (stereo not given) | 101% (inactive) |
| C=CCN1CC[C@]23c4c5ccc(O)c4O[C@@H]2/C(=N/N=C2\CC[C@@]4(O)C6Cc7ccc(O)c8c7[C@@]4(CCN6CC=C)[C@@H]2O8)CC[C@@]3(O)C1C5 | 100% (inactive) |
| Cc1ccc(S(=O)(=O)N[C@@H](CCCCN)C(=O)CCl)cc1 | 133% (inactive) |
| C=C/C(C)=C/[C@@]1(C)SC(=O)C(C)=C1O | 97.7% (inactive) |
| C[C@]12CCC(=O)C=C1CC[C@@H]1[C@@H]2C(=O)C[C@@]2(C)[C@H]1CC[C@]2(O)C(=O)CO | 126% (inactive) |
| COc1ccc(CCN(C)CCCC(C#N)(c2ccc(OC)c(OC)c2)C(C)C)cc1OC (stereo not given) | 118% (inactive) |
| CC(C)[C@@H]1NC(=O)[C@H](CCCCN)NC(=O)[C@@H](Cc2c[nH]c3ccccc23)NC(=O)[C@H](Cc2ccc(O)cc2)NC(=O)[C@H](C)N(C)C(=O)[C@H](Cc2ccccc2)NC1=O | 101% (inactive) |
| C/C=C(/C)C(=O)O[C@H]1C(C)=C2[C@H]([C@@H]1OC(=O)CCCCCCC)[C@@](C)(OC(C)=O)C[C@H](OC(=O)CCC)[C@@]1(O)[C@H]2OC(=O)[C@@]1(C)O | 0% (inactive) |
| COc1ccccc1N1CCN(CCCCN2C(=O)c3ccccc3C2=O)CC1 | 117% (inactive) |
| NC(=O)CI | 108% (inactive) |
| O=C(CCCN1CCC2(CC1)C(=O)NCN2c1ccccc1)c1ccc(F)cc1 | 77.9% (inactive) |
| OCC1NCC(O)C(O)C1O (stereo not given) | 97.9% (inactive) |
| CCN(CC)CCNC(=O)c1cc(Cl)c(N)cc1OC | 99.4% (inactive) |
